Experimental data taken from patent US20040259853A1, “Methods for preventing acute clinical vascular events in a subject” (The Trustees of Columbia University, priority 2000, published 2004).
Where a SMILES comes first, the peptide text is derived from it. [ ]: non-standard residue; d: D form. Nle = CCCC[C@H](N)C(=O)O

Assays:
ABCA1 protein = assay: ABCA1 immunoblot of total and cell-surface protein in cholesterol-loaded macrophages; type: cell-based, mouse; details: for decrease in ABCA1 protein in free cholesterol-loaded macrophages: 50 μM; for decrease in ABCA1 protein in FC-loaded macrophages: calpeptin 40 μM, PD150606 25 μM (data not shown)
Procedure: Macrophages were pre-incubated for 14 h with 50 μg/ml acetyl-LDL in DMEM, 0.2% BSA, in the absence (CE) or presence (FC) of 58035. The cells were then incubated for 5 h with 100 μg/ml acetyl-LDL in DMEM, 0.2% BSA, in the absence or presence of 58035, respectively, with no further additions (Control) or in the presence of 10 μg/ml cycloheximide, 50 μM ALLN, or 50 μM lactacystin as indicated. Aliquots of cell lysates were then assayed for ABCA1 and β-actin protein by immunoblot analysis.
Macrophages were pre-incubated for 14 h with 50 μg/ml acetyl-LDL in DMEM, 0.2% BSA, in the absence (CE) or presence (FC) of 58035. […] Aliquots of total cell protein (top panel) or cell-surface protein (bottom panel) were then subjected to immunoblot analysis for ABCA1 and the standards β-actin or β1-integrin.
Macrophage monolayers in 35-mm dishes were washed with ice-cold PBS 3 times and then incubated with ice-cold PBS containing 0.5 mg/ml NHS—SS-biotin (Pierce) for 30 minutes at 4° C. After washing 5 times with ice-cold PBS containing 20 mM Tris-HCl, pH 8.0, the cells were scraped into PBS and pelleted by centrifugation. The pelleted macrophages were lysed in 50 μl RIPA buffer (0.5% sodium deoxycholate, 0.1% SDS, 1% Triton X-100, 20 mM Tris, 150 mM NaCl, and 5 mM EDTA, pH 8) containing 1 mM PMSF. […] of the lysate were subjected directly to 4-20% gradient SDS-polyacrylamide gel electrophoresis (SDS-PAGE) for determination of total ABCA1. The rest of the cell lysate was affinity-purified to isolate biotinylated proteins. Briefly, the cell lysates were diluted to 150 μl in RIPA buffer and incubated with 50 μl immobilized streptavidin agarose (Pierce), which was pre-washed three times with RIPA buffer at 0° C. for 2 h with gentle shaking. The agarose was pelleted by centrifugation using a microcentrifuge at 5,000 rpm for 2 min; the pellet was resuspended in 1 ml RIPA buffer, and the process was repeated 5 times. The agarose was resuspended 30 μl SDS-PAGE loading buffer containing 330 mM β-mercaptoethanol at 37^6C for 15 min and subjected to SDS-PAGE as above. ABCA1 and β-integrin were detected by Western blot using anti-ABCA1 and anti-β-integrin anti-sera. The blots were reprobed with anti-β-actin antibody, which detected no actin signal, thus verifying that no cytosolic protein was biotinylated by the procedure.
Peritoneal macrophages were lysed in RIPA buffer containing 1 mM PMSF. Nuclei were removed by centrifugation at 3000×g for 10 min at 4° C. […] For Western blot detection of ABCA1, anti-ABCA1 antiserum was used. Signals were detected using HRP-conjugated secondary anti-bodies (Bio-Rad) and ECL (Amersham Pharmacia Biotech). The membranes were reprobed with anti-β actin monoclonal antibody or anti-β1-integrin anti-serum for the proper internal controls. The relative intensities of the bands were determined by densitometry.

[1] = test system: unfolded protein response (UPR); assay: Immunoblot analysis of UPR markers (CHOP, PERK, IRE1α, XBP-1) in macrophages; details: 58035 alone, 5 h (FIG. 16B, lane 2)
Procedure: For detection of PERK, nuclei-free cell extracts were immunoprecipitated with anti-PERK antiserum and then immunoblotted, while for detection of ATF-4 and CHOP, immunoblots were performed on nuclear extracts. Lamin B, a nuclear protein, was used as the loading control.
Immunoprecipitation and immunoblot detection for IRE1α and PERK were conducted as described by Harding et al. (35). Immunoblot analyses of XBP-1, ATF4, and CHOP were carried out as described previously (36,38) with minor modifications. Briefly, cells were lysed in RIPA buffer to prepare whole-cell lysates or to prepare nuclei by centrifugation. The whole-cell lysates or nuclei were resuspended in 2×SDS-PAGE loading buffer and incubated at 95° C. for 10 min. Whole cell (100 μg) or nuclear lysates (20 μg) were electrophoresed on 4-20% gradient SDS-PAGE gels and electrotransferred to 0.22-μm nitrocellulose membrane using a Bio-Rad mini-transfer tank. After incubation with primary antibodies, the protein bands were detected with HRP-conjugated secondary antibodies (Bio-Rad) and ECL (Amersham Pharmacia Biotech). The membranes were reprobed with an anti-β-actin monoclonal antibody or an anti-lamin B serum to control for differences in loading.

[2] = test system: ABCA1-mediated cholesterol efflux; assay: 3H-cholesterol efflux to apoA-I from free cholesterol-loaded macrophages; type: cell-based, mouse; details: for cholesterol efflux to apoA-I from FC-loaded NPC+/− macrophages: 200 μM, 18 h apoA-1 incubation (FIG. 9D)
Procedure: Peritoneal macrophages from C57 mice were incubated for 5 h with 100 μg/ml ^3H-cholesterol-labeled acetyl-LDL in DMEM, 0.2% BSA, in the presence of 10 μg/ml 58035.
Acetyl-LDL (800 μg) was incubated with 10 μCi ^3H-cholesterol for 30 min at 37° C., followed by addition of 8 ml of DMEM, 0.2% BSA. The macrophages were incubated with this medium for 5 h, washed 3 times with PBS, and then incubated with DMEM, 0.2% BSA for 15 min at 37° C. After washing with PBS, the macrophages were incubated with DMEM, 0.2% BSA, containing either 15 μg/ml apoAI or 20 μg/ml HDL2. At the indicated time points, 100 μl of media was removed and centrifuged for 5 min at 14,000 rpm to pellet cellular debris. The radioactivity in this fraction of media was quantitated by liquid scintillation counting. After the last time point, the remainder of the media was removed, and the cells were dissolved in 0.5 ml of 0.1 N NaOH containing 0.5% sodium dodecylsulfate (5 h at room temperature). A 100 μl-aliquot of the cell lysate was counted, and the percent efflux was calculated as (media cpm)[…](cell +media cpm)×100. Total protein in the cell lysate was determined using the Bio-Rad DC protein assay kit. Note that there was no statistical difference in cellular cpm or protein between cholesteryl ester- and free cholesterol-loaded macrophages.

[3] = test system: ABCA1 transporter activity (phospholipid efflux to apoA-I); assay: 3H-phospholipid efflux to apoA-I from free cholesterol-loaded macrophages; type: cell-based, mouse; details: 15 min at 37° C.
Procedure: Aliquots of free cholesterol-loaded cells were incubated for 15 min at 37° C. in the absence or presence of 0.5% or 0.2% […] (CD). This treatment removes about 30% of total cellular cholesterol. All cells were then chased with media containing 15 μg/ml apoA-I for 3.33 h and phospholipid efflux was measured as in FIG. 6C.
Macrophages were labeled with ^3H-choline (5 μCi/ml) in DMEM, 10% FBS, for 24 h. After washing three times with PBS, the macrophages were incubated with 100 μg/ml acetyl-LDL+58035 in DMEM, 0.2% BSA, for 5 h. The cells were then incubated with 15 μg/ml apoA-1 in DMEM, 0.2% BSA, for the indicated time periods. ^3H-choline-containing phospholipids in aliquots of the medium were extracted in chloroform:methanol (2:1, v/v), and those remaining in the cells in hexane:isopropyl alcohol (3:2, v/v). The radioactivity was measured by scintillation counting.

## CCCC[C@@H](C=O)NC(=O)[C@H](CC(C)C)NC(=O)[C@H](CC(C)C)NC(C)=O [ALLN] (Ac-Leu-Leu-[Nle]-aldehyde)
ABCA1 protein; 5 h (FIG. 8B)
  decrease in ABCA1 protein in free cholesterol-loaded macrophages: blocked the decrease in ABCA1

## O=C(O)/C(S)=C/c1ccc(I)cc1 [PD150606]
ABCA1 protein
  decrease in ABCA1 protein in FC-loaded macrophages: did not affect the decrease in ABCA1

## CCCC[C@@H](C=O)NC(=O)[C@H](CC(C)C)NC(=O)OCc1ccccc1 [calpeptin]
ABCA1 protein
  decrease in ABCA1 protein in FC-loaded macrophages: did not affect the decrease in ABCA1

## CCCCCCCCCC[Si](C)(C)CCC(=O)NC(Cc1ccc(C)cc1)c1ccccc1 (stereo not shown) [compound 58035, 3-[decyldimethylsilyl]-N-[2-(4-methylphenyl)-1-phenylethyl] propanamide]
[1]
  PERK activation in macrophages: partially activate PERK

## C[C@@H]1C[C@@H]([C@H](O)CC2CC(=O)NC(=O)C2)C(=O)[C@@H](C)C1 [cycloheximide]
ABCA1 protein; 10 μg/ml cycloheximide, 5 h (FIG. 8B)
  decrease in ABCA1 protein in free cholesterol-loaded cells: insensitive

## COc1ccc(Cl)cc1C(=O)NCCc1ccc(S(=O)(=O)NC(=O)NC2CCCCC2)cc1 [glyburide]
[2]
  cholesterol efflux to apoA-I from FC-loaded NPC+/− macrophages: effectively blocked

## CN(C)CCCN1c2ccccc2CCc2ccccc21 [imipramine]
[2]; FC-loaded macrophages (FIGS. 11A, 11B)
  induction of cholesterol efflux to ApoA-1: marked ability to induce cholesterol efflux to ApoA-1
[2]; optimal low doses, FC-loaded macrophages (FIG. 12A)
  restoration of ABCA1-dependent efflux: restored ABCA1-dependent efflux
ABCA1 protein; low concentrations
  ABCA1 protein expression in free cholesterol-loaded cells: markedly enhance

## CC(=O)N[C@@H](CSC(=O)[C@]1([C@@H](O)C(C)C)NC(=O)[C@H](C)[C@@H]1O)C(=O)O [lactacystin]
ABCA1 protein; 5 h (FIG. 8B)
  decrease in ABCA1 protein in free cholesterol-loaded macrophages: blocked the decrease in ABCA1

## [Na+].[Na+].[Na+].[O]=[V]([O-])([O-])[O-] [ortho-vanadate, sodium orthovanadate]
[2]
  cholesterol efflux to apoA-I from FC-loaded NPC+/− macrophages: effectively blocked

## methyl-β-cyclodextrin
[3]; 0.5% or 0.2% (FIG. 6E)
  defect in phosphatidylcholine efflux to apoA-I of free cholesterol-loaded cells: reversed
[3]; 0.5% or 0.2%, FC-loaded cells
  removal of total cellular cholesterol: about 30%
